{
  "source": "patent US20100279942A1",
  "about": "“METHODS FOR TREATING MOTOR NEURON DISEASE” (priority 2004, published 2010)",
  "key": {"[1]": {"test_system": "F11 cells transformed with SOD1 mutant (A4T-SOD1, G85R-SOD1, G93R-SOD1) genes", "experiment": "Neuronal cell death test, Trypan blue exclusion assay, F11 cells transformed with SOD1 mutant genes", "type": "cell-based, rat/mouse hybrid cell", "protocol": "F11 cell, the hybrid cell of rat embryonic day 13 (E13) primary cultured neuronal cell with mouse neuroblastoma NTG18 cell, was cultured in Ham's F-12 medium (Life Technologies, Gaithersburg, Md.) containing 18% FBS (Hyclone, Logan, Utah) and antibiotics as previously reported (Platika D, et al., 1985, Proc Natl Acad Sci USA 82: 3499-3503; Yamatsuji T, et al., 1996, Science 272: 1349-1352; Huang P, et al., 2000, Mol Hum Reprod 6: 1069-1078; and Niikura T, et al., 2001, J Neuroscience, 21: 1902-1910).\nThe F11 cells (7×10^4 cells/well, 6-well plate, 12- to 16-hour culture in Ham's F-12 (18% PBS) medium) were transformed with wild-type or SOD1 mutant (A4T, G85R, and G93R) genes by lipofection (0.5 μg of each SOD1 gene; 1 μl of LipofectAMINE; 2 μl of PLUS Reagent) under serum-free conditions for 3 hours and cultured for 2 hours in Ham's F-12 (18% PBS) medium. The medium was replaced by Ham's F-12 (10% PBS) in the presence or absence of ADNF. After 72 hours of the transformation, cell mortality was measured by Trypan blue exclusion assay as previously reported (Hashimoto Y, et al., 2001, J Neurosci 21: 9235-9245; and Hashimoto Y, et al, 2001, Proc Natl Acad Sci USA 98: 6336-6341). […]\nIntracellular signaling by ADNF was examined. F11 cells were transformed with pEF-BOS or SOD1 mutant (A4T-SOD1, G85R-SOD1, or G93R-SOD1) cDNA and reacted with 10 nM wortmannin (PI3 kinase inhibitor), 100 μM genistein (tyrosine kinase inhibitor), 50 μM PD98059 (MEK inhibitor), 20 μM SB203580 (p38 MAPK inhibitor), 1 μM AG490 (JAK kinase inhibitor), 5 μM KN93 (calcium/calmodulin-dependent kinase inhibitor), or 10 μM HA1004 (protein kinase A inhibitor) in the presence or absence of 100 nM ADNF. After 72 hours of the transformation, cell mortality was measured by Trypan blue exclusion assay.\nThe effect of KN93 on the neuroprotective action of ADNF was examined. […] After 72 hours of the transformation, cell mortality was measured by Trypan blue exclusion assay. […]"}, "G93A-SOD1 Tg mice": {"test_system": "G93A-SOD1 Tg mice", "experiment": "Motor performance (rotarod), disease onset and survival in G93A-SOD1 Tg mice", "type": "in vivo, mouse", "description": "Transgenic (Tg) mice (hereinafter, referred to as “G93A-SOD1 Tg mice”) expressing human FALS-associated SOD1 mutant gene with a mutation (G93A) from Gly to Ala at 93 position are the best-established mouse model of ALS (Gurney M E, et al., 1994, Science 264: 1772-1775; and Gurney M E, et al., 1997, J Neurol Sci 152 Suppl 1: S67-73). The G93A-SOD1 Tg mice manifest symptoms quite similar to human ALS after normal birth and rapidly result in death in all cases. The G93A-SOD1 Tg mice, which have the onset of the regression of motor neurons similar clinically and pathologically to that in human ALS, have been known so far to be the most excellent model of ALS throughout the world and employed for identifying effective candidate agents for ALS patients.\nThe model mice were used to confirm the in vivo effect of ADNF on neurotoxicity induced by G93A-SOD1.\nThe G93A-SOD 1 Tg mice were purchased from Jackson Laboratories (Bar Harbor, Me.). The G93A-SOD1 Tg mice were kept as hemizygote mice by the mating thereof with C57BL/6J mice (CLEA Japan, Inc). The mice were raised in a SPF room (specific pathogen-free animal facility; 23±1° C., 55±5% humidity) in the 12-hour light/[…] (7:00 AM-7:00 PM). The mice were freely fed with gamma ray-irradiated Picolab Rodent Diet 20 (PMI Feeds Inc. St. Louis, Mo.) and sodium hyposulfite (5 ppm)-containing aseptic deionized distilled water.\nThe G93A-SOD1 Tg mice at 10 weeks of age were put under anesthesia by the intraperitoneal injection of 10% sodium pentobarbital (60 mg/kg). A hole was made on the cranial bone with a drill on the operating table of a stereotactic instrument to aseptically transplant the C315GS-4 cannula system for mouse (Plastics One Inc., Roanoke, Va.) to the mouse left cerebral ventricle. The cannula was fixed with a surgical adhesive and dental cement. The mice at 80 days of age were divided at random to a saline (control)-administered group (n=8) and an ADNF-administered group (n=11), and 3 μl of saline and 3 μl of 30 nmol ADNF were intracerebroventricularly (icv) injected each day to the former and the latter groups, respectively, until the end of the experiment. The injection was performed with the cannula in C3151S-4 connected to Hamilton syringe through a cannula tube (C232, PE50/Thin wall, Plastic One).\nThe motor function (motor performance) was evaluated weekly with a rotarod (CLEA Japan Inc). After the cannulation, the mice were acclimated to the rotarod for 2 days. The mice were placed onto a rotating rod moving at 5 rpm, and the time for which each mouse could remain on the rod was automatically detected. The test was conducted according to the protocol wherein the test was completed as a score of 7 minutes if the mouse remained on the rod for 7 minutes (Li M, et al., 2000, Science 288: 335-339; and Kaspar B K, et al., 2003, Science 301: 839-842). Disease onset was defined as the first day when the mouse could not remain on the rotarod for 7 minutes.\nDeath was defined when the mouse was unable to right itself within 30 seconds after being placed on its back (Li M, et al., supra)."}, "SOD1 proteins": {"test_system": "SOD1 proteins", "experiment": "Immunoblot analysis of SOD1 protein expression in transformed cells", "type": "cell-based, mouse and rat/mouse hybrid", "conditions": "ADNF treatment; F11 and NSC34 cells", "protocol": "Immunoblot analysis was conducted according to the previous report (Hashimoto Y, et al., supra, p. 6336-6341). To examine the protein expression of wild-type or SOD1 mutant genes, lysates from the cells transfected with each SOD1 gene were subjected to SDS-PAGE (20 μg/lane). After electrical blotting to a PVDF membrane, the membrane was blocked by a typical method and reacted with an anti-SOD1 antibody and then with a 1:5000-diluted horseradish peroxidase-conjugated anti-mouse IgG antibody (Bio-Rad Lab. Hercules, Calif., USA). The antibody-reactive bands were detected by ECL (Amersham Pharmacia Biotech, Uppsala, Sweden)."}, "[2]": {"test_system": "neuronal cell death caused by amyloid β", "conditions": "cited from earlier work"}},
  "note": "Several values for one entry are separate records, joined by “and”; a condition that tells them apart may be missing. Identical values can stand only once. Entries after “also recorded” stand apart in the source; their conditions may differ. Ends that are not written are not given here.",
  "data": [
    {"sequence": "SALLRSIPA [ADNF, short peptide consisting of nine amino acid residues]", "values": [
      {"measurement": "cell death inhibition", "setting": "[1]; 10 aM ADNF, three SOD1 mutant genes, 72 hours", "result": "hardly exhibited cell death inhibition"},
      {"measurement": "cell mortality induced by SOD1 mutant genes", "setting": "[1]; 100 fM ADNF, A4T-, G85R-, G93R-SOD1, 72 hours after transformation", "result": "completely decreased cell mortalities induced by these three types of SOD1 mutant genes to the level of the control"},
      {"measurement": "protective action on cell death caused by SOD1 mutant genes", "setting": "[1]; ADNF at concentrations equal to or above 10 nM", "result": "complete protective action"},
      {"measurement": "disease onset versus saline-administered group", "setting": "G93A-SOD1 Tg mice; 30 nmol ADNF icv each day", "result": "prone to be delayed; also recorded: no significant difference"},
      {"measurement": "survival rate versus ALS control mice", "setting": "G93A-SOD1 Tg mice; 30 nmol ADNF icv each day", "result": "no difference"},
      {"measurement": "Survival days", "setting": "G93A-SOD1 Tg mice; 30 nmol ADNF icv each day, n = 11", "result": "155.3 ± 3.7 days and 155.3 ± 2.2 days"},
      {"measurement": "Disease onset days", "setting": "G93A-SOD1 Tg mice; 30 nmol ADNF icv each day, n = 11, onset = first day unable to remain on rotarod for 7 minutes", "result": "127.3 ± 2.6", "unit": "days"},
      {"measurement": "motor performance (rotarod) versus control mice", "setting": "G93A-SOD1 Tg mice; Week 16, 30 nmol ADNF icv each day from 80 days of age", "result": "significantly better than that of the control mice"},
      {"measurement": "motor performance (rotarod) versus control mice", "setting": "G93A-SOD1 Tg mice; Week 18 to Week 20, 30 nmol ADNF icv each day", "result": "this difference between the control mice and the ADNF-treated mice disappeared"},
      {"measurement": "SOD1 gene expression levels", "setting": "SOD1 proteins", "result": "not affected"},
      {"measurement": "neuroprotective action at high concentration", "setting": "[2]; ADNF at or above 10 nM, Brenneman et al.", "result": "lose its neuroprotective action"},
      {"measurement": "inhibitory activity against cell death caused by amyloid β toxicity- or APP mutant gene-induced disorders", "setting": "[2]; ADNF at or above nM levels, Hashimoto et al. 2001", "result": "reduced inhibitory activity"}
    ]}
  ]
}
